Results reported in patent US10722520B2, “Heterocyclic compounds and their use in preventing or treating bacterial infections” (MUTABILIS, priority 2016, dated 2020).
Like-named read-outs stand apart in the source and are kept apart here.

Columns and labels:
[1] = target: OXA-48 (Klebsiella pneumoniae, UniProt Q6XEC0)
[2] = test system: K. pneumoniae BAA-1898; assay: MIC of compound alone, broth microdilution; assay type: cell-based; conditions: strain BAA-1898: K. pneumoniae, TEM-1, SHV-11, SHV-12, KPC-2
Procedure, shortened: (§1)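 Visual end point: lowest concentration that blocked growth. Conditions: cation-adjusted Mueller-Hinton broth, 5×10^5 cfu/mL final inoculum of log-phase bacteria, 16-20 h, 35° C, ambient atmosphere.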

[3] = test system: E. cloacae P99; assay: MIC of compound alone, broth microdilution; assay type: cell-based; conditions: strain P99: E. cloacae, AmpC
Procedure, shortened: as §1

[4] = test system: K. pneumoniae UFR24; assay: MIC of compound alone, broth microdilution; assay type: cell-based; conditions: strain UFR24: K. pneumoniae, TEM-1, SHV-2, SHV-11, OXA-1, OXA-48, OXA-47
Procedure, shortened: as §1

[5] = test system: K. pneumoniae 6299; assay: MIC of compound alone, broth microdilution; assay type: cell-based; conditions: strain 6299: K. pneumoniae, TEM-1, SHV-11, OXA-163
Procedure, shortened: as §1

[6] = target: OXA-11 (Pseudomonas aeruginosa, UniProt Q06778)
Sequence of OXA-11 (Q06778 21-266): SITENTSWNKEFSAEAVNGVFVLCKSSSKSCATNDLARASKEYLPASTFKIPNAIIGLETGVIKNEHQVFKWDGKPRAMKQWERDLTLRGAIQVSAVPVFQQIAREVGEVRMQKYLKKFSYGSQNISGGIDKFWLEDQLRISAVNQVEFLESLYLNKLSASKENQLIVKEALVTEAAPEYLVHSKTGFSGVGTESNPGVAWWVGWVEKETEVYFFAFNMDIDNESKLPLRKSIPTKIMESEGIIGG

[7] = test system: E. coli UFR61O; assay: MIC of ceftazidime (CAZ) at fixed concentration of compound (synergy), broth microdilution; assay type: cell-based; conditions: strain UFR61O (E. coli)
Procedure, shortened: as §1

[8] = test system: E. coli UFR39; assay: as above; assay type: cell-based; conditions: strain UFR39 (E. coli)
Procedure, shortened: as §1

[9] = test system: K. pneumoniae 200047; assay: as above; assay type: cell-based; conditions: strain 200047 (K. pneumoniae)
Procedure, shortened: as §1

[10] = test system: E. coli UFR41; assay: as above; assay type: cell-based; conditions: strain UFR41 (E. coli)
Procedure, shortened: as §1

[11] = test system: K. pneumoniae BAA-1898; assay: as above; assay type: cell-based; conditions: strain BAA-1898 (K. pneumoniae)
Procedure, shortened: as §1

[12] = test system: E. cloacae UFR85; assay: as above; assay type: cell-based; conditions: strain UFR85 (E. cloacae)
Procedure, shortened: as §1

[13] = test system: E. cloacae P99; assay: as above; assay type: cell-based; conditions: strain P99 (E. cloacae)
Procedure, shortened: as §1

[14] = test system: E. coli UFR18; assay: as above; assay type: cell-based; conditions: strain UFR18 (E. coli)
Procedure, shortened: as §1

[15] = test system: P. aeruginosa CIP107051; assay: as above; assay type: cell-based; conditions: strain CIP107051 (P. aeruginosa)
Procedure, shortened: as §1

[16] = test system: E. coli 190317; assay: as above; assay type: cell-based; conditions: strain 190317 (E. coli)
Procedure, shortened: as §1

[17] = test system: K. pneumoniae UFR68; assay: as above; assay type: cell-based; conditions: strain UFR68 (K. pneumoniae)
Procedure, shortened: as §1

[18] = test system: E. cloacae 260508; assay: as above; assay type: cell-based; conditions: strain 260508 (E. cloacae)
Procedure, shortened: as §1

[19] = test system: K. pneumoniae UFR24; assay: as above; assay type: cell-based; conditions: strain UFR24 (K. pneumoniae)
Procedure, shortened: as §1

[20] = test system: E. coli 131119; assay: as above; assay type: cell-based; conditions: strain 131119 (E. coli)
Procedure, shortened: as §1

[21] = test system: E. coli UFR32; assay: as above; assay type: cell-based; conditions: strain UFR32 (E. coli)
Procedure, shortened: as §1

[22] = test system: E. coli RGN238; assay: as above; assay type: cell-based; conditions: strain RGN238 (E. coli)
Procedure, shortened: as §1

[23] = test system: K. pneumoniae UFR77; assay: as above; assay type: cell-based; conditions: strain UFR77 (K. pneumoniae)
Procedure, shortened: as §1

[24] = test system: K. oxytoca UFR21; assay: as above; assay type: cell-based; conditions: strain UFR21 (K. oxytoca)
Procedure, shortened: as §1

[25] = test system: E. coli UFR74; assay: as above; assay type: cell-based; conditions: strain UFR74 (E. coli)
Procedure, shortened: as §1

[26] = test system: E. cloacae UFR70; assay: as above; assay type: cell-based; conditions: strain UFR70 (E. cloacae)
Procedure, shortened: as §1

[27] = test system: E. cloacae UFR51; assay: as above; assay type: cell-based; conditions: strain UFR51 (E. cloacae)
Procedure, shortened: as §1

[28] = test system: K. pneumoniae 160143; assay: as above; assay type: cell-based; conditions: strain 160143 (K. pneumoniae)
Procedure, shortened: as §1

[29] = test system: K. pneumoniae 6299; assay: as above; assay type: cell-based; conditions: strain 6299 (K. pneumoniae)
Procedure, shortened: as §1

[30] = Klebsiella pneumoniae, read-out: MIC compounds of the invention alone
[31] = footnote *: MIC of ceftazidime with compound fixed at 8 μg/mL
[32] = MIC of ceftazidime with compound fixed at 4 μg/mL

Sequence of OXA-48 (Q6XEC0 23-265, looked up, species assumed): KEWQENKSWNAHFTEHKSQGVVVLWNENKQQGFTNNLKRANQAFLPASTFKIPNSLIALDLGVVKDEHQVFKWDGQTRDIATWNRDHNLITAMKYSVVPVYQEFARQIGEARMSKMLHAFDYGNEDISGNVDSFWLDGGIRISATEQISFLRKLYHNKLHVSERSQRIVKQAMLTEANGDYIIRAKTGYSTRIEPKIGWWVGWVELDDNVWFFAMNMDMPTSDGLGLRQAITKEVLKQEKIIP

O=C1N2CC(n3cncn3)=CC(C2)N1OS(=O)(=O)[O-].[Na+] (stereo not shown) [Example 5, sodium [7-oxo-3-(1,2,4-triazol-1-yl)-1,6-diazabicyclo[3.2.1]oct-3-en-6-yl]sulfate]
4: MIC combination of CAZ and compound at 8 μg/mL [15, 31]
<0.25: MIC combination of CAZ and compound at 8 μg/mL [7, 31] | MIC combination of CAZ and compound at 8 μg/mL [8, 31] | MIC combination of CAZ and compound at 8 μg/mL [9, 31] | MIC combination of CAZ and compound at 8 μg/mL [10, 31] | MIC combination of CAZ and compound at 8 μg/mL [11, 31] | MIC combination of CAZ and compound at 8 μg/mL [12, 31] | MIC combination of CAZ and compound at 8 μg/mL [13, 31] | MIC combination of CAZ and compound at 8 μg/mL [14, 31] | MIC combination of CAZ and compound at 8 μg/mL [16, 31] | MIC combination of CAZ and compound at 8 μg/mL [17, 31] | MIC combination of CAZ and compound at 8 μg/mL [18, 31] | MIC combination of CAZ and compound at 8 μg/mL [19, 31] | MIC combination of CAZ and compound at 8 μg/mL [20, 31] | MIC combination of CAZ and compound at 8 μg/mL [21, 31] | MIC combination of CAZ and compound at 8 μg/mL [22, 31] | MIC combination of CAZ and compound at 8 μg/mL [23, 31] | MIC combination of CAZ and compound at 8 μg/mL [24, 31] | MIC combination of CAZ and compound at 8 μg/mL [25, 31] | MIC combination of CAZ and compound at 8 μg/mL [26, 31] | MIC combination of CAZ and compound at 8 μg/mL [27, 31] | MIC combination of CAZ and compound at 8 μg/mL [28, 31] | MIC combination of CAZ and compound at 8 μg/mL [29, 31]
4 µg/mL: MIC ([2]; Klebsiella pneumoniae, BAA1898, read-out: MIC compounds of the invention alone) | MIC ([3]; Enterobacter cloacae, read-out: MIC compounds of the invention alone) | MIC [5, 30]
2 µg/mL: MIC [4, 30]
14 nM: IC50 [6]
0.45 nM: IC50 [1]

O=C1N2CC(n3ccnn3)=CC(C2)N1OS(=O)(=O)[O-].[Na+] (stereo not shown) [Example 2, sodium [7-oxo-3-(triazol-1-yl)-1,6-diazabicyclo[3.2.1]oct-3-en-6-yl]sulfate]
<0.25: MIC combination of CAZ and compounds of the invention at 4 μg/mL [7, 32] | MIC combination of CAZ and compounds of the invention at 4 μg/mL [8, 32] | MIC combination of CAZ and compounds of the invention at 4 μg/mL [9, 32] | MIC combination of CAZ and compounds of the invention at 4 μg/mL [10, 32] | MIC combination of CAZ and compounds of the invention at 4 μg/mL [11, 32] | MIC combination of CAZ and compounds of the invention at 4 μg/mL [12, 32] | MIC combination of CAZ and compounds of the invention at 4 μg/mL [13, 32] | MIC combination of CAZ and compounds of the invention at 4 μg/mL [14, 32] | MIC combination of CAZ and compounds of the invention at 4 μg/mL [16, 32] | MIC combination of CAZ and compounds of the invention at 4 μg/mL [17, 32] | MIC combination of CAZ and compounds of the invention at 4 μg/mL [18, 32] | MIC combination of CAZ and compounds of the invention at 4 μg/mL [20, 32] | MIC combination of CAZ and compounds of the invention at 4 μg/mL [21, 32] | MIC combination of CAZ and compounds of the invention at 4 μg/mL [22, 32] | MIC combination of CAZ and compounds of the invention at 4 μg/mL [23, 32] | MIC combination of CAZ and compounds of the invention at 4 μg/mL [24, 32] | MIC combination of CAZ and compounds of the invention at 4 μg/mL [25, 32] | MIC combination of CAZ and compounds of the invention at 4 μg/mL [26, 32] | MIC combination of CAZ and compounds of the invention at 4 μg/mL [27, 32] | MIC combination of CAZ and compounds of the invention at 4 μg/mL [28, 32] | MIC combination of CAZ and compounds of the invention at 4 μg/mL [29, 32]
≤0.25: MIC combination of CAZ and compounds of the invention at 4 μg/mL [19, 32]
40 nM: IC50 ([6]; read-out: IC50 β-lactamase OXA-11, class (D), nitrocefin 200 μM, 30-min pre-incubation, enzyme 1.2 nM)
4: MIC combination of CAZ and compounds of the invention at 4 μg/mL [15, 32]
4 µg/mL: MIC compounds of the invention alone [4] | MIC compounds of the invention alone [5]
1 µg/mL: MIC compounds of the invention alone [3]
0.59 nM: IC50 ([1]; read-out: IC50 β-lactamase OXA-48, class (D), nitrocefin 200 μM, 30-min pre-incubation, enzyme 0.3 nM)
2 µg/mL: MIC compounds of the invention alone [2]
